Values of other authors as cited in patent publication US11761043B2, “Machine assay and analysis for selecting antihypertensive drugs” (Geneticure Inc., priority 2014, dated 2023).

How the values were obtained:
[1] = molecular target: CYP2D6 (Homo sapiens, UniProt P10635); conditions: in vivo
[2] = system: CYP2D6; conditions: individuals homozygous for adenine (AA) at rs3892097 vs subjects not homozygous AA
[3] = system: renin; conditions: cytosine (guanine) variant of renin rs12750834

Sequence of CYP2D6 (Homo sapiens, UniProt P10635) (P10635 whole entry): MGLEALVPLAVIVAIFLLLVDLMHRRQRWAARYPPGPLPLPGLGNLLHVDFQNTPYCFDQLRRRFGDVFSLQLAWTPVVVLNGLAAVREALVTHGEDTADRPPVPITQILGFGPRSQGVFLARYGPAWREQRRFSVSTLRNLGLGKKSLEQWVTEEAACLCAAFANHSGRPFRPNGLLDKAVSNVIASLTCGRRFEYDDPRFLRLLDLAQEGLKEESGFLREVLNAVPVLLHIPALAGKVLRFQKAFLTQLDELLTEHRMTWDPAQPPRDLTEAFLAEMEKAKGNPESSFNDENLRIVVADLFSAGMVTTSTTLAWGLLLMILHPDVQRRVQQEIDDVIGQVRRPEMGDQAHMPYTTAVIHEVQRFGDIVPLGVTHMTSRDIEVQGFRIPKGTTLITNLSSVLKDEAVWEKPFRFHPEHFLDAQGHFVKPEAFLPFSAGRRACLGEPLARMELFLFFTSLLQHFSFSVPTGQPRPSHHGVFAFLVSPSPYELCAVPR

Structure (SMILES)	plasma levels after taking these drugs [2]	further results
COc1ccccc1OCCNCC(O)COc1cccc2[nH]c3ccccc3c12 (stereo not shown) [carvedilol]	–	requirement of CYP2D6 for metabolism [1]: do not require CYP2D6 for their metabolism
COCCc1ccc(OCC(O)CNC(C)C)cc1 (stereo not shown) [metoprolol]	higher plasma levels	–
CC(C)NCC(O)COc1cccc2ccccc12 (stereo not shown) [propranolol]	higher plasma levels	–
CCCCC(=O)N(Cc1ccc(-c2ccccc2-c2nnn[nH]2)cc1)[C@H](C(=O)O)C(C)C [valsartan]	–	reduction in blood pressure upon administration [3]: greater reduction in blood pressure
